Experiments:
[1] = target: T1, LNCaP androgen receptor (endogenous mutant AR) (Homo sapiens, UniProt P10275, T878A); experiment: Androgen receptor transactivation assay in LNCaP cells (MMTV-luciferase reporter); format: cell-based; settings: DHT 1 nM, JC9 0 uM to 7.5 uM
T1 construct: LNCaP cells express an endogenous mutant AR that is found in prostate cancer patients; host or cells: LNCaP
T1 sequence (P10275 1-920 T878A): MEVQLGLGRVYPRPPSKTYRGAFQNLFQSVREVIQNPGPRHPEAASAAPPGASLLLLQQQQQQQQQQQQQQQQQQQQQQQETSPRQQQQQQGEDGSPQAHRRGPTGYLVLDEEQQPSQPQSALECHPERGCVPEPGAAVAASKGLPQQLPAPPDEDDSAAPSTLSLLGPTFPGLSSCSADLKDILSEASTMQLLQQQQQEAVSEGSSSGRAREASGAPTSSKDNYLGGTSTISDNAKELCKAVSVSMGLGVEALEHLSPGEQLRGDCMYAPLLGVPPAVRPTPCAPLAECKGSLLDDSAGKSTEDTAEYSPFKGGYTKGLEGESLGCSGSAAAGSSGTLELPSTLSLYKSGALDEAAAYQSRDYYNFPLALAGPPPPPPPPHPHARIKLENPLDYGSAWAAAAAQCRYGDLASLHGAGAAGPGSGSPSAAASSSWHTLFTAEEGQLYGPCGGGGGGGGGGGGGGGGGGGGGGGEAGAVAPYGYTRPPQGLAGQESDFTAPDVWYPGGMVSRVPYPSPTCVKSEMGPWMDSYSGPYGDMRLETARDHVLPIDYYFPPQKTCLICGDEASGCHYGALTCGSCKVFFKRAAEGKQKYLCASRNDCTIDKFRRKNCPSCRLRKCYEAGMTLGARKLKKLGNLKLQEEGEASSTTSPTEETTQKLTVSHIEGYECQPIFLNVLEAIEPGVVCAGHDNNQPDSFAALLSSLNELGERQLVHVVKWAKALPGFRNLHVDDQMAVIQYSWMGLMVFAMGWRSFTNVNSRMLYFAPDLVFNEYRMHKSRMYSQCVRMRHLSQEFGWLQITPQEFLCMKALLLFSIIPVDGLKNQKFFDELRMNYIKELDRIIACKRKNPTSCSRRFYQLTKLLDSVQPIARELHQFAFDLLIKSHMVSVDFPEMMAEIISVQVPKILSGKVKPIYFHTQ
Description: Prostate cancer cells, non-prostate tumor cells, and normal cells can be used in this transient transfection assay, which measures transactivation of the androgen receptor (AR) and can be used to detect a reduction of AR activity caused by AR degradation. In the provided non-limiting example, CV-1 (green monkey kidney cells lacking an androgen receptor) and LNCaP cells (prostate cancer cells containing an endogenous mutant AR), were transfected with a plasmid carrying an androgen response element (ARE) and a reporter gene.
Both the CV-1 and LNCaP cells (obtained from ATCC, Manassas, Va.) were maintained in […] medium supplemented with penicillin (25 units/millilter), streptomycin (25 micrograms/milliliter), and 10% heat-inactivated fetal bovine serum (FBS). Cells were plated in 35-millimeter dishes at a concentration of 1-2×10^5cells/well and cultured at 37 degrees Celsius in an incubator under a 5% carbon dioxide atmosphere. […] The cells were lysed, and luciferase activity of the lysate was measured with the Dual-Luciferase Reporter Assay System (Promega, Madison, Wis.). Data were expressed as relative luciferase activity normalized to the internal luciferase positive control. […]

progesterone receptor = target: T2, progesterone receptor (Homo sapiens, UniProt P06401); experiment: Western blot of LNCaP cell lysates, progesterone receptor; format: cell-based; settings: 1 or 2 micromolar, 24 hours, presence or absence of DHT
T2 construct: endogenous in cells; host or cells: LNCaP
T2 sequence (P06401 1-933): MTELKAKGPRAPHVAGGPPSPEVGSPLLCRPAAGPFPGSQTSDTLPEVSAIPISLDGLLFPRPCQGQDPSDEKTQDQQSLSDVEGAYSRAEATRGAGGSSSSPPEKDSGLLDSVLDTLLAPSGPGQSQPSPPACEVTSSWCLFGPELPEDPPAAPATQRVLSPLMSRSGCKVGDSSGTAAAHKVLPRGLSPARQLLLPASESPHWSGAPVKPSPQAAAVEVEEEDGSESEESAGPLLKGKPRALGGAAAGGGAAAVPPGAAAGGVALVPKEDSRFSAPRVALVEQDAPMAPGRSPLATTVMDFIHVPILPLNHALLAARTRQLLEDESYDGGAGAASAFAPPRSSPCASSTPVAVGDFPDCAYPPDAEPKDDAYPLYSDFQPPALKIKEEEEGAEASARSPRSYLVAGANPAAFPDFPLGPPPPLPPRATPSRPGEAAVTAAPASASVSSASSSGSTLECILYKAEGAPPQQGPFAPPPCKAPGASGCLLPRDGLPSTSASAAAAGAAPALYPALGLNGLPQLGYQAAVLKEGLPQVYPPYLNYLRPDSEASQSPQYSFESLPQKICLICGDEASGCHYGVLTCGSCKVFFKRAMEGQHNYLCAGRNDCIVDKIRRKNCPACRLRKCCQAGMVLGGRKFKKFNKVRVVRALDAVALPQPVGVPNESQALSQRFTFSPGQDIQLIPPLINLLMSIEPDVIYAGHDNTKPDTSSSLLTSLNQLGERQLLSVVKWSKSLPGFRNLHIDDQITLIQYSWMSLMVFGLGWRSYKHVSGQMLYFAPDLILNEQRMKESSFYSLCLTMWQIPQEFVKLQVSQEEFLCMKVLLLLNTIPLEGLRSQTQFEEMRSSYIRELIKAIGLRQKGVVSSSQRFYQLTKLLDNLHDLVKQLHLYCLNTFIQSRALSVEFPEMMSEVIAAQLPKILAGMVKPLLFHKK

cellular concentration of progesterone receptor (progesterone receptor)	SMILES	LNCaP androgen receptor transactivation (relative luciferase activity) [1]
–	COc1ccc(C=CC(=O)C=C(O)C=Cc2ccc(OC)c(OC)c2)cc1OC [JC9, 5-hydroxy-1,7-bis(3,4-dimethoxyphenyl)-1,4,6-heptatrien-3-one]	dose-dependent inhibition of LNCaP androgen receptor transactivation
decreased	CCOC(=O)CCC(C(=O)C=Cc1ccc(O)c(OC)c1)C(=O)C=Cc1ccc(O)c(OC)c1 (centres unmarked) [JC15, 7-(4-hydroxy-3-methoxyphenyl)-4-[3-(4-hydroxy-3-methoxyphenyl)acryloyl]-5-oxo-hept-6-enoic acid ethyl ester]	–

Source: US20060084704A1, “Methods and compositions for enhancing degradation of nuclear receptor transcription factors and uses thereof” (priority 2004, published 2006)
